# Assays:
# NUGC-3_KO_p53i = experiment: p53 pathway gene profiling, doxycycline-induced WT p53; format: cell-based, human; conditions: doxycycline 50 ng/ml
# CYP2B6 = experiment: CYP induction in human hepatocytes (mRNA and enzyme activity); conditions: for % Induction Relative to Positive Control / Fold-Change: CYP2B6 enzyme activity, control article
# CYP3A = CYP3A (Homo sapiens, UniProt P08684); experiment: in vitro; conditions: both, microsomes, pH 7.4, % of Control Enzyme Activity, HLM; for activity at 10 min, 0.037 µM: 0.0370 μM
# [1] = n=3, * basal expression level is low
# CYP3A, sequence (P08684 2-503): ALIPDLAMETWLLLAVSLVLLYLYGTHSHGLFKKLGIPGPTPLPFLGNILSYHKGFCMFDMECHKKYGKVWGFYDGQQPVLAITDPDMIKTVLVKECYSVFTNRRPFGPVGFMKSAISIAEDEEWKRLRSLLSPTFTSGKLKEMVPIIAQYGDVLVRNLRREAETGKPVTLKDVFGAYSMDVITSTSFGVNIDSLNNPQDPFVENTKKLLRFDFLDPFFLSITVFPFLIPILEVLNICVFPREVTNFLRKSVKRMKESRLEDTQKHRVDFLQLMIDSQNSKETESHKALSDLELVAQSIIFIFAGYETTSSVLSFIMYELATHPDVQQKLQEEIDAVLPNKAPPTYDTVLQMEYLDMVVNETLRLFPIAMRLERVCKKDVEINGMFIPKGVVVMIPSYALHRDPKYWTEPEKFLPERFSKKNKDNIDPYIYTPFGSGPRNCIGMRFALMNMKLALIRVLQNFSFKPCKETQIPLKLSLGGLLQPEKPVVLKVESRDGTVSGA
compound,measurement,setting,value
C[C@H]1c2cccc(O)c2C(=O)C2=C(O)[C@]3(O)C(=O)C(C(N)=O)=C(O)[C@@H](N(C)C)[C@@H]3[C@@H](O)[C@@H]21 [Doxycycline],APAF1 fold change,NUGC-3_KO_p53i; n=3,2.40 ± 0.16 fold
same,BAX fold change,NUGC-3_KO_p53i; n=3,2.85 ± 0.08 fold
same,BBC3 fold change,NUGC-3_KO_p53i; n=3,2.46 ± 0.06 fold
same,BIRC5 fold change,NUGC-3_KO_p53i; n=3,0.52 ± 0.03 fold
same,BRCA1 fold change,NUGC-3_KO_p53i; n=3,0.67 ± 0.03 fold
same,BRCA2 fold change,NUGC-3_KO_p53i; n=3,0.74 ± 0.02 fold
same,CCNB1 fold change,NUGC-3_KO_p53i; n=3,0.57 ± 0.01 fold
same,CCNE 1 fold change,NUGC-3_KO_p53i; n=3,0.70 ± 0.01 fold
same,CCNG 1 fold change,NUGC-3_KO_p53i; n=3,1.65 ± 0.05 fold
same,CDC25A fold change,NUGC-3_KO_p53i; n=3,0.61 ± 0.04 fold
same,CDC25C fold change,NUGC-3_KO_p53i; n=3,0.58 ± 0.02 fold
same,CDK1 fold change,NUGC-3_KO_p53i; n=3,0.71 ± 0.01 fold
same,CDKN1A fold change,NUGC-3_KO_p53i; n=3,37.37 ± 0.55 fold
same,CHEK1 fold change,NUGC-3_KO_p53i; n=3,0.71 ± 0.02 fold
same,CHEK2 fold change,NUGC-3_KO_p53i; n=3,0.74 ± 0.01 fold
same,DNMT1 fold change,NUGC-3_KO_p53i; n=3,0.78 ± 0.03 fold
same,E2F1 fold change,NUGC-3_KO_p53i; n=3,0.63 ± 0.02 fold
same,FAS fold change,NUGC-3_KO_p53i; n=3,7.34 ± 0.04 fold
same,GADD45A fold change,NUGC-3_KO_p53i; n=3,3.68 ± 0.20 fold
same,MDM2 fold change,NUGC-3_KO_p53i; n=3,12.97 ± 0.29 fold
same,MSH2 fold change,NUGC-3_KO_p53i; n=3,0.70 ± 0.02 fold
same,PIDD1 fold change,NUGC-3_KO_p53i; n=3,2.75 ± 0.05 fold
same,PPM1D fold change,NUGC-3_KO_p53i; n=3,2.21 ± 0.10 fold
same,PRC1 fold change,NUGC-3_KO_p53i; n=3,0.64 ± 0.01 fold
same,SESN2 fold change,NUGC-3_KO_p53i; n=3,2.50 ± 0.12 fold
same,TNFRSF10B fold change,NUGC-3_KO_p53i; n=3,1.88 ± 0.04 fold
same,TNFRSF10D fold change,NUGC-3_KO_p53i; n=3,2.73 ± 0.04 fold
same,TP53 fold change,NUGC-3_KO_p53i; n=3,25.95 ± 0.84 fold
same,BTG2* fold change,NUGC-3_KO_p53i; [1],27.82 ± 2.42 fold
same,EGR1* fold change,NUGC-3_KO_p53i; [1],4.40 ± 0.50 fold
same,IL6* fold change,NUGC-3_KO_p53i; [1],1.23 ± 0.01 fold
"CCC1(c2ccccc2)C(=O)NC(=O)NC1=O [PB, phenobarbital]",% Induction Relative to Positive Control,CYP2B6; Donor 1,100%
same,Fold-Change,CYP2B6; Donor 1,6.84
same,% Induction Relative to Positive Control,CYP2B6; Donor 2,100%
same,Fold-Change,CYP2B6; Donor 2,8.56
same,% Induction Relative to Positive Control,CYP2B6; Donor 3,100%
same,Fold-Change,CYP2B6; Donor 3,3.36
same,CYP2B6 mRNA % Induction Relative to Positive Control,"CYP2B6; Donor 1, 1000 μM",100%
same,CYP2B6 mRNA Fold Change (n = 3) Mean,"CYP2B6; Donor 1, 1000 μM",24.4
same,CYP2B6 mRNA % Induction Relative to Positive Control,"CYP2B6; Donor 2, 1000 μM",100%
same,CYP2B6 mRNA Fold Change (n = 3) Mean,"CYP2B6; Donor 2, 1000 μM",793
same,CYP2B6 mRNA % Induction Relative to Positive Control,"CYP2B6; Donor 3, 1000 μM",100%
same,CYP2B6 mRNA Fold Change (n = 3) Mean,"CYP2B6; Donor 3, 1000 μM",6.85
same,CYP2B6 mRNA fold increase (positive control),"CYP2B6; donor 2, positive control",793 fold
"CC(=O)N1CCN(c2ccc(OCC3COC(Cn4ccnc4)(c4ccc(Cl)cc4Cl)O3)cc2)CC1 (stereo not shown) [Ketoconazole, ketoconazole]","activity at 10 min, 0.0123 µM",CYP3A; Midazolam probe,74.5%
same,"activity at 10 min, 0.037 µM",CYP3A; Midazolam probe,49.9%
same,"activity at 10 min, 3 µM",CYP3A; Midazolam probe,5.38%
same,"activity at 10 min, 0.0123 µM",CYP3A; Testosterone probe,58.4%
same,"activity at 10 min, 0.037 µM",CYP3A; Testosterone probe,32.9%
same,"activity at 10 min, 0.333 µM","CYP3A; Testosterone probe, 0.333 μM",6.75%
same,"activity at 10 min, 1 µM","CYP3A; Testosterone probe, 1.00 μM",3.54%
same,"activity at 10 min, 3 µM",CYP3A; Testosterone probe,1.56%
